Assays:
OVCAR-5 = assay: cells; conditions: Homo sapiens, OVCAR-5, 48 h
OVCAR-4 = assay: cells; conditions: Homo sapiens, OVCAR-4, 48 h
SF-539 = assay: cells; conditions: Homo sapiens, SF-539, 48 h
MDA-MB-231/ATCC = assay: cells; conditions: Homo sapiens, MDA-MB-231, 48 h
KM12 = assay: cells; conditions: Homo sapiens, KM12, 48 h
HT29 = assay: cells; conditions: Homo sapiens, HT-29, 48 h
HCT-15 = assay: cells; conditions: Homo sapiens, HCT-15, 48 h
SK-OV-3 = assay: cells; conditions: Homo sapiens, SK-OV-3, 48 h
M14 = assay: cells; conditions: Homo sapiens, M14, 48 h
UO-31 = assay: cells; conditions: Homo sapiens, UO-31, 48 h
TK-10 = assay: cells; conditions: Homo sapiens, TK-10, 48 h
SF-295 = assay: cells; conditions: Homo sapiens, SF-295, 48 h
A549/ATCC = assay: cells; conditions: Homo sapiens, A549, 48 h
DU-145 = assay: cells; conditions: Homo sapiens, DU-145, 48 h
MCF7 = assay: cells; conditions: Homo sapiens, MCF7, 48 h
U251 = assay: cells; conditions: Homo sapiens, U-251, 48 h
NCI-H226 = assay: cells; conditions: Homo sapiens, NCI-H226, 48 h
SNB-75 = assay: cells; conditions: Homo sapiens, SNB-75, 48 h
T-47D = assay: cells; conditions: Homo sapiens, T47D, 48 h
60 cancer cell lines = assay: NCI-60 one-dose screen (10 μM); format: cell-based; conditions: Homo sapiens; one dose of 10 μM, mean over 60 cancer cell lines; read-out: Mean Growth Percent (MGP)
Excerpt: Additionally, the mean of the growth percentages (MGP) of each compound against all the 60 cancer cell lines is also reported, which is used as one of the selection criteria to continue with tests at five concentration doses.

SK-MEL-2 = assay: cells; conditions: Homo sapiens, SK-MEL-2, 48 h
LOX IMVI = assay: cells; conditions: Homo sapiens, 48 h
786-0 = assay: cells; conditions: Homo sapiens, 786-0, 48 h
HL-60(TB) = assay: cells; conditions: Homo sapiens, HL-60, 48 h
UACC-257 = assay: cells; conditions: Homo sapiens, UACC-257, 48 h
A498 = assay: cells; conditions: Homo sapiens, A498, 48 h
NCI-H23 = assay: cells; conditions: Homo sapiens, NCI-H23, 48 h
HOP-92 = assay: cells; conditions: Homo sapiens, HOP-92, 48 h
MDA-MB-468 = assay: cells; conditions: Homo sapiens, MDA-MB-468, 48 h
RPMI-8226 = assay: cells; conditions: Homo sapiens, RPMI-8226, 48 h
SN12C = assay: cells; conditions: Homo sapiens, 48 h
NCI-H460 = assay: cells; conditions: Homo sapiens, NCI-H460, 48 h
COLO 205 = assay: cells; conditions: Homo sapiens, COLO 205, 48 h
SK-MEL-5 = assay: cells; conditions: Homo sapiens, SK-MEL-5, 48 h
MOLT-4 = assay: cells; conditions: Homo sapiens, MOLT-4, 48 h
NCI-H522 = assay: cells; conditions: Homo sapiens, NCI-H522, 48 h
HCT-116 = assay: cells; conditions: Homo sapiens, HCT-116, 48 h

## COc1cc(/C=C/C(=O)c2cc(OC)c(OC)c(OC)c2)ccc1Oc1nc(NCCO)nc(N2CCOCC2)n1 [20d]
OVCAR-5
  GI50: 3.14 µM
OVCAR-5; read-out: LC50
  CC50: 38.4 µM
OVCAR-4
  GI50: 2.92 µM
OVCAR-4; read-out: LC50
  CC50: 33.4 µM
SF-539
  GI50: 1.88 µM
SF-539; read-out: LC50, SF-539, 48 h
  CC50: 13 µM
MDA-MB-231/ATCC
  GI50: 2.86 µM
MDA-MB-231/ATCC; read-out: LC50
  CC50: 35.4 µM
KM12
  GI50: 2.99 µM
KM12; read-out: LC50
  CC50: > 100 µM
HT29
  GI50: 2.83 µM
HT29; read-out: LC50
  CC50: 32.9 µM
HCT-15
  GI50: 1.6 µM
HCT-15; read-out: LC50
  CC50: 10.2 µM
SK-OV-3
  GI50: 2.44 µM
SK-OV-3; read-out: LC50
  CC50: 22 µM
M14
  GI50: 2.38 µM
M14; read-out: LC50
  CC50: 37.9 µM
UO-31
  GI50: 1.66 µM
UO-31; read-out: LC50
  CC50: 6.5 µM
TK-10
  GI50: 3.12 µM
TK-10; read-out: LC50
  CC50: 30.6 µM
SF-295
  GI50: 2.9 µM
SF-295; read-out: LC50
  CC50: 35.2 µM
A549/ATCC
  GI50: 2.78 µM
A549/ATCC; read-out: LC50
  CC50: 42.2 µM
DU-145
  GI50: 2.99 µM
DU-145; read-out: LC50
  CC50: 35.3 µM
MCF7
  GI50: 1.72 µM
MCF7; read-out: LC50
  CC50: 61.5 µM
U251; U251, 48 h
  GI50: 1.62 µM
U251; read-out: LC50
  CC50: 6.02 µM
NCI-H226
  GI50: 3.69 µM
NCI-H226; read-out: LC50
  CC50: > 100 µM
SNB-75
  GI50: 1.79 µM
SNB-75; read-out: LC50
  CC50: 24.2 µM
T-47D
  GI50: 3.12 µM
T-47D; read-out: LC50
  CC50: 39.9 µM
60 cancer cell lines
  activity at 10 µM: 0.79%
SK-MEL-2
  GI50: 2.76 µM
SK-MEL-2; read-out: LC50
  CC50: 33.1 µM
LOX IMVI
  GI50: 0.642 µM
LOX IMVI; read-out: LC50, LOX IMVI, 48 h
  CC50: 4.99 µM
786-0
  GI50: 3.46 µM
786-0; read-out: LC50
  CC50: 43.6 µM
HL-60(TB)
  GI50: 1.54 µM
HL-60(TB); read-out: LC50
  CC50: > 100 µM
UACC-257
  GI50: 2.83 µM
UACC-257; read-out: LC50
  CC50: 36.7 µM
A498
  GI50: 3.58 µM
A498; read-out: LC50
  CC50: 37 µM
NCI-H23
  GI50: 1.99 µM
NCI-H23; read-out: LC50
  CC50: 17.5 µM
HOP-92
  GI50: 2.75 µM
HOP-92; read-out: LC50
  CC50: 35.4 µM
MDA-MB-468
  GI50: 1.71 µM
MDA-MB-468; read-out: LC50
  CC50: 14.3 µM
RPMI-8226
  GI50: 1.63 µM
RPMI-8226; read-out: LC50
  CC50: > 100 µM
SN12C
  GI50: 1.79 µM
SN12C; read-out: LC50
  CC50: 23.3 µM
NCI-H460
  GI50: 1.87 µM
NCI-H460; read-out: LC50
  CC50: 8.69 µM
COLO 205
  GI50: 2.1 µM
COLO 205; read-out: LC50
  CC50: 9.18 µM
SK-MEL-5
  GI50: 1.77 µM
SK-MEL-5; read-out: LC50
  CC50: 6.19 µM
MOLT-4
  GI50: 1.98 µM
MOLT-4; read-out: LC50
  CC50: > 100 µM
NCI-H522
  GI50: 1.56 µM
NCI-H522; read-out: LC50
  CC50: 6.43 µM
HCT-116
  GI50: 1.53 µM
HCT-116; read-out: LC50
  CC50: 6.78 µM

From article PMC11012124, “Synthesis of Novel Triazine-Based Chalcones and 8,9-dihydro-7H-pyrimido[4,5-b][1,4]diazepines as Potential Leads in the Search of Anticancer, Antibacterial and Antifungal Agents” (International Journal of Molecular Sciences, 2024)
